Assay results from patent publication US20260022322A1, “MULTIMODAL BIOPHYSICAL CHARACTERIZATION APPARATUS, SYSTEM, METHOD, AND USE” (Yigong Ruixin (Xiamen) Technology Co., Ltd, priority 2023, published 2026).

Key:
tumor cells = assay: Immune-tumor cell interaction on cell mechanics chip with drug intervention; assay type: cell-based
Excerpt: S1. Prepare the chip: Select a cell mechanics chip with a micropillar structure. The top of the micropillars is coated with a suitable extracellular matrix (ECM) to promote the attachment and growth of tumor cells and immune cells. Use an anti-adhesion treatment on the side surfaces of the micropillars and in the space between them.
S2. Seed tumor cells and immune cells: Seed tumor cells and immune cells (such as NK cells or T cells) separately on the mechanics chip, allowing them to interact.
S3. Monitor the mechanical properties of the tumor cells: Use the light reflection signal and micropillar deflection to monitor in real-time the changes in the cell mechanical force and hardness of the tumor cells during their interaction with the immune cells.
S4. […] Softer tumor cells (with smaller cell mechanical force) are difficult for immune cells to recognize and kill.
S5. Drug intervention: Add the drug JAS, which makes tumor cells harder, to the culture medium, and observe the changes in the cell mechanical force and hardness of the tumor cells.
S6. Evaluate the effect of drug intervention: Under the action of the drug, the tumor cells become harder, and the cell mechanical force increases (FIG. 32). It was observed that the killing effect of immune cells on tumor cells was enhanced accordingly.

[1] = system: macrophage cell line THP-1; assay: Nuclear hardness of activated THP-1 by magnetic material method and fluorescence method; assay type: cell-based; details: THP-1 activated to M1-type macrophages
Excerpt: S1: Provide a chip whose surface is covered with PDMS nano-magnetic micropillars. The micropillars contain a fluorescent substance and have an extracellular matrix coating.
S2: Culture the macrophage cell line THP-1 on this chip. Contact between the THP-1 cells and the chip is made by controlling the height of the culture medium.
S3: Add lipopolysaccharide (LPS) to the culture medium to activate the THP-1 cells, causing them to transform into M1-type macrophages.
S4: After several days of cultivation, use the magnetic material method to turn on the magnetic field and measure the reflected light attenuation. After turning off the magnetic field, measure the light reflection signal attenuation value and frequency of each micropillar, and sequentially calculate the softness/hardness of the nucleus at each position.
S5: Use paraformaldehyde to fix the cells on the chip, and use DAPI to stain the nuclei.
S6: Using the fluorescence method, use a confocal microscope to perform a Z-axis tomographic scan from the top to the bottom of the micropillars, and analyze the depth of the DAPI signal of the nucleus between the micropillars. […]
The results measured by the magnetic material method and the fluorescence method are the same (FIG. 33), proving that the accuracy of measuring nuclear hardness by the magnetic material method has been cross-validated by the fluorescence method.

[2] = drug added to culture medium, micropillar chip, light reflection signal (FIG. 32)

Row | Compound | cell mechanical force of the tumor cells (tumor cells; [2]) | hardness of the tumor cells (tumor cells; [2]) | killing effect of immune cells on tumor cells (tumor cells; tumor cells co-seeded with immune cells (such as NK cells or T cells), under the action of the drug) | sagging depth of the nucleus between the micropillars ([1]; DAPI, confocal Z-axis scan (fluorescence method)) | nuclear hardness ([1]; magnetic material method and fluorescence method gave the same result (FIG. 33))
1 | C/C1=C\[C@H](C)C[C@H](C)OC(=O)C[C@H](c2ccc(O)cc2)NC(=O)[C@@H](Cc2c(Br)[nH]c3ccccc23)N(C)C(=O)[C@H](C)NC(=O)[C@@H](C)C1 [JAS] | increases | become harder | enhanced | – | –
2 | lipopolysaccharide [LPS] | – | – | – | becomes deeper | softer
